In patent US7989438B2, “Therapeutic compounds” (Istituto di Ricerche di Biologia Molecolare P. Angeletti SpA, priority 2007, dated 2011):

system: HCV subgenomic replication; test: Cell based HCV replication assay (subgenomic replicon in Huh-7 cells, NS3 Cell-ELISA); details: Hepatitis C virus, Huh-7; Table 3, various macrocycles; activity ranges; read-out: IC50* (nM), Inhibition of HCV subgenomic replication
Source text: Cell clones that stably maintain subgenomic HCV replicon were obtained by transfecting Huh-7 cells with an RNA replicon identical to I377neo/NS3-3′/wt described by Lohmann et al. (1999) (EMBL-genbank No. AJ242652), followed by selection with neomycin sulfate (G418). Viral replication was monitored by measuring the expression of the NS3 protein by an ELISA assay performed directly on cells grown in 96 wells microtiter plates (Cell-ELISA) using the anti-NS3 monoclonal antibody 10E5/24 (as described in published International application WO 02/59321). Cells were seeded into 96 well plates at a density of 10^4 cells per well in a final volume of 0.1 ml of DMEM/10% FCS. Two hours after plating, 50 μl of DMEM/10% FCS containing a 3× concentration of inhibitor were added, cells were incubated for 96 hours and then fixed for 10 minutes with ice-cold isopropanol. Each condition was tested in duplicate and average absorbance values were used for calculations. The cells were washed twice with PBS, blocked with 5% non-fat dry milk in PBS+0.1% Triton X100+0.02% SDS (PBSTS) and then incubated o/n at 4° C. with the 10E5/24 mab diluted in Milk/PBSTS. After washing 5 times with PBSTS, the cells were incubated for 3 hours at room temperature with Fc specific anti-mouse IgG conjugated to alkaline phosphatase (Sigma), diluted in Milk/PBSTS. After washing again as above, the reaction was developed with p-Nitrophenyl phosphate disodium substrate (Sigma) and the absorbance at 405/620 nm read at intervals. For calculations, we used data sets where samples incubated without inhibitors had absorbance values comprised between 1 and 1.5. The inhibitor concentration that reduced by 50% the expression of NS3 (IC50) was calculated by fitting the data to the Hill equation, Fraction inhibition=1−(Ai−b)/(A0−b)=[I]^n/([I]^n+[…]) where: • Ai=absorbance value of HBI10 cells supplemented with the indicated inhibitor concentration. • A0=absorbance value of HBI10 cells incubated without inhibitor. • b=absorbance value of Huh-7 cells plated at the same density in the same microtiter plates and incubated without inhibitor. • n=Hill coefficient.

Q: How did the IC50 turn out when `O=C1NS(=O)(=O)N2CCCN(CCN(Cc3ccccc3)[C@H]3COc4ccccc4-c4c(C5CCCCC5)c5ccc1cc5n4C3)CC2` [Example 309, (20R)-21-benzyl-31-cyclohexyl-18-oxa-2-thia-1,3,10,21,24-pentaazahexacyclo[22.3.2.1^5,9.1^8,11.1^10,20.0^12,17]dotriaconta-5(32),6,8,11(31),12,14,16-heptaen-4-one 2,2-dioxide] was run?
A: 150 to 500 nM

same assay, conditions: Hepatitis C virus, Huh-7; Table 5, various macrocycles; activity ranges; read-out: IC50* (nM), Inhibition of HCV subgenomic replication

Q: With `CN1C2CCN(CCC3COc4ccccc4-c4c(C5CCCCC5)c5ccc(cc5n4C3)C(=O)NS1(=O)=O)CC2` (stereo not shown) [Example 504, 30-cyclohexyl-23-methyl-6-oxa-22-thia-1,14,21,23-tetraazahexacyclo[22.2.2.1^4,14.1^13,16.1^15,19.0^7,12]hentriaconta-7,9,11,13(30),15(29),16,18-heptaen-20-one 22,22-dioxide] as the molecule, how does the IC50 read?
A: 25 to 150 nM

same assay, conditions: Table 2, various macrocycles; activity ranges; read-out: IC50* (nM), Inhibition of HCV subgenomic replication

Q: For `CC(C)N1CCN(C)C2COc3ccc(F)cc3-c3c(C4CCCCC4)c4ccc(cc4n3C2)C(=O)NS(=O)(=O)N(C)CC1` [Example 209, (7R)-14-cyclohexyl-2-fluoro-21-isopropyl-18,24-dimethyl-7,8-dihydro-6H-7,11-(epiminoethanoiminoethanoiminothioiminomethano)-indolo[1,2-e][1,5]benzoxazocin-15-one 17,17-dioxide], which IC50 is on record?
A: < 25 nM

Q: For `CCN1CCN(CCN(C)C)C2COc3ccccc3-c3c(C4CCCCC4)c4ccc(cc4n3C2)C(=O)NS(=O)(=O)N(C)CC1` [Example 217, (7R)-14-cyclohexyl-24-[2-(dimethylamino)ethyl]-21-ethyl-18-methyl-7,8-dihydro-6H-7,11-(epiminoethanoiminoethanoiminothioiminomethano)-indolo[1,2-e][1,5]benzoxazocin-15-one 17,17-dioxide], which IC50 is on record?
A: < 25 nM

Q: `CCN1CCN(C)C2COc3cc(F)ccc3-c3c(C4CCCCC4)c4ccc(cc4n3C2)C(=O)NS(=O)(=O)N(C)CC1` [Example 203, (7R)-14-cyclohexyl-21-ethyl-3-fluoro-18,24-dimethyl-7,8-dihydro-6H-7,11-(epiminoethanoiminoethanoiminothioiminomethano)-indolo[1,2-e][1,5]benzoxazocin-15-one 17,17-dioxide] was tested. Which IC50 did it give?
A: < 25 nM

Q: For `CCN1CCN(CCN(C)C)C2COc3c(C)cccc3-c3c(C4CCCCC4)c4ccc(cc4n3C2)C(=O)NS(=O)(=O)N(C)CC1` [Example 219, (7R)-14-cyclohexyl-24-[2-(dimethylamino)ethyl]-21-ethyl-4,18-dimethyl-7,8-dihydro-6H-7,11-(epiminoethanoiminoethanoiminothioiminomethano)-indolo[1,2-e][1,5]benzoxazocin-15-one 17,17-dioxide], which IC50 is on record?
A: < 25 nM

same assay, conditions: Table 4, various macrocycles; activity ranges; read-out: IC50* (nM), Inhibition of HCV subgenomic replication

Q: For `CCN1CCN(C)C2COc3c(cccc3C(F)(F)F)-c3c(C4CCCCC4)c4ccc(cc4n3C2)C(=O)NS(=O)(=O)N(C)CC1` [Example 406, (7R)-14-cyclohexyl-21-ethyl-18,24-dimethyl-4-(trifluoromethyl)-7,8-dihydro-6H-7,11-(epiminoethanoiminoethanoiminothioiminomethano)-indolo[1,2-e][1,5]benzoxazocin-15-one 17,17-dioxide], which IC50 is on record?
A: 150 to 500 nM

Q: How did the IC50 turn out when `CN1CCN(Cc2cnn(C)c2)C2COc3ccccc3-c3c(C4CCCCC4)c4ccc(cc4n3C2)C(=O)NS(=O)(=O)N(C)CC1` [Example 409, (7R)-14-cyclohexyl-18,21-dimethyl-24-[(1-methyl-1H-pyrazol-4-yl)methyl]-7,8-dihydro-6H-7,11-(epiminoethanoiminoethanoiminothioiminomethano)-indolo[1,2-e][1,5]benzoxazocin-15-one 17,17-dioxide] was run?
A: < 25 nM

same assay, conditions: Table 5, various macrocycles; activity ranges; read-out: IC50* (nM), Inhibition of HCV subgenomic replication

Q: For `CN1CCCC2COc3c(OCCN4CCCC4)cccc3-c3c(C4CCCCC4)c4ccc(cc4n3C2)C(=O)NS(=O)(=O)N(C)CC1` [Example 511, (7R)-14-cyclohexyl-18,21-dimethyl-4-(2-pyrrolidin-1-ylethoxy)-7,8-dihydro-6H-7,11-(propanoiminoethanoiminothioiminomethano)indolo[1,2-e][1,5]benzoxazocin-15-one 17,17-dioxide], which IC50 is on record?
A: < 25 nM

Q: `CN1CCN(C)[C@H]2COc3ccccc3-c3c(C4CCCC4)c4ccc(cc4n3C2)C(=O)NS(=O)(=O)N(C)CC1` [Example 518, (7R)-14-cyclopentyl-18,21,24-trimethyl-7,8-dihydro-6H-7,11-(epiminoethanoiminoethanoiminothioiminomethano)-indolo[1,2-e][1,5]benzoxazocin-15-one 17,17-dioxide] was tested. Which IC50 did it give?
A: < 25 nM

Q: How did the IC50 turn out when `CN1CCCN(CCO)CCC2COc3ccccc3-c3c(C4CCCCC4)c4ccc(cc4n3C2)C(=O)NS1(=O)=O` (single isomer, unassigned) [Example 507, (7R) or (7S)-14-cyclohexyl-22-(2-hydroxyethyl)-18-methyl-7,8-dihydro-6H-7,11-(ethanoiminopropanoiminothioiminomethano)indolo[1,2-e][1,5]benzoxazocin-15-one 17,17-dioxide] was run?
A: < 25 nM

Q: `Cc1cccc2c1OCC1Cn3c-2c(C2CCCCC2)c2ccc(cc23)C(=O)NS(=O)(=O)N(C)CCN(CC(=O)N(C)C)CCN1C` [Example 514, 2-[(7R)-14-cyclohexyl-4,18,24-trimethyl-17,17-dioxido-15-oxo-7,8-dihydro-6H-7,11-(epiminoethanoiminoethanoiminothioiminomethano)-indolo[1,2-e][1,5]benzoxazocin-21-yl]-N,N-dimethylacetamide] was tested. Which IC50 did it give?
A: < 25 nM

same assay, conditions: Table A; activity ranges; Huh-7 replicon cells, 96 hours; read-out: IC50 (nM), Inhibition of HCV subgenomic replication

Q: How did the IC50 turn out when `CN(C)CCN1CCC(C)(C)CCN(C)S(=O)(=O)NC(=O)c2ccc3c(C4CCCCC4)c4n(c3c2)CC1COc1ccccc1-4` [Compound A31, (7R)-14-cyclohexyl-24-[2-(dimethylamino)ethyl]-18,21,21-trimethyl-7,8-dihydro-6H-7,11-(epiminopentanoiminothioiminomethano)indolo[1,2-e][1,5]benzoxazocin-15-one 17,17-dioxide] was run?
A: < 25 nM

Q: How did the IC50 turn out when `CN1CCN(C)C2COc3ccccc3-c3c(C4CCCCC4)c4ccc(cc4n3C2)C(=O)NS(=O)(=O)N(C)C(C)(C)C1` [Compound A24, (7R)-14-cyclohexyl-18,19,19,21,24-pentamethyl-7,8-dihydro-6H-7,11-(epiminoethanoiminoethanoiminothioiminomethano)indolo[1,2-e][1,5]benzoxazocin-15-one 17,17-dioxide] was run?
A: 25 to 150 nM

Q: Which IC50 does the source give for `CCN1CCN(C)C2COc3c(CN4CCCCC4)cccc3-c3c(C4CCCCC4)c4ccc(cc4n3C2)C(=O)NS(=O)(=O)N(C)CC1` [Compound A26, (7R)-14-cyclohexyl-21-ethyl-18,24-dimethyl-4-(piperidin-1-ylmethyl)-7,8-dihydro-6H-7,11-(epiminoethanoiminoethanoiminothioiminomethano)indolo[1,2-e][1,5]benzoxazocin-15-one 17,17-dioxide] here?
A: < 25 nM

Q: How did the IC50 turn out when `COc1ccc2c(c1)OCC1CCCN(C)CCN(C)S(=O)(=O)NC(=O)c3ccc4c(C5CCCCC5)c-2n(c4c3)C1` (single isomer, unassigned; (-)) [Compound A37, (−)-14-cyclohexyl-3-methoxy-18,21-dimethyl-7,8-dihydro-6H-7,11-(propanoiminoethanoiminothioiminomethano)indolo[1,2-e][1,5]benzoxazocin-15-one 17,17-dioxide] was run?
A: < 25 nM

Q: For `CN1CCN(C)[C@H]2COc3ccccc3-c3c(C4CCCCC4)c4ccc(cc4n3C2)C(=O)NS(=O)(=O)N(CC2CC2)CC1` [Compound A5, (7R)-14-cyclohexyl-18-(cyclopropylmethyl)-21,24-dimethyl-7,8-dihydro-6H-7,11-(epiminoethanoiminoethanoiminothioiminomethano)indolo[1,2-e][1,5]benzoxazocin-15-one 17,17-dioxide], which IC50 is on record?
A: < 25 nM

Q: `CNC(=O)CN1CCN(C)CCN(C)S(=O)(=O)NC(=O)c2ccc3c(C4CCCCC4)c4n(c3c2)CC1COc1ccccc1-4` [Compound A30, 2-[(7R)-14-cyclohexyl-18,21-dimethyl-17,17-dioxido-15-oxo-7,8-dihydro-6H-7,11-(epiminoethanoiminoethanoiminothioiminomethano)indolo[1,2-e][1,5]benzoxazocin-24-yl]-N-methylacetamide] was tested. Which IC50 did it give?
A: 25 to 150 nM

Q: For `CN1CCN(C)C2COc3cc(F)ccc3-c3c(C4CCCCC4)c4ccc(cc4n3C2)C(=O)NS(=O)(=O)N(C)CC1` [Compound A11, (7R)-14-cyclohexyl-3-fluoro-18,21,24-trimethyl-7,8-dihydro-6H-7,11-(epiminoethanoiminoethanoiminothioiminomethano)indolo[1,2-e][1,5]benzoxazocin-15-one 17,17-dioxide], which IC50 is on record?
A: < 25 nM
